The values that follow come from publication PMC5902495, “Synthesis of Symmetrical Tetrameric Conjugates of the Radiolanthanide Chelator DOTPI for Application in Endoradiotherapy by Means of Click Chemistry” (Frontiers in Chemistry, 2018).

Series [1] is described as follows: Stability and protonation constants of Cu^II complexes (spectrophotometry, pH-potentiometry). Format: physicochemical. The conditions noted are these: 25°C, 0.15 M NaCl. The protocol: Stability constant of Cu(DOTPI) complex was determined by spectrophotometry, studying the Cu^II-DOTPI systems at the absorption band of Cu^II-complex at [H^+] = 0.01– 0.2 M over the wavelength range of 400–800 nm. Concentrations of Cu^II and DOTPI were 1 mM. The H^+ concentration in the samples was adjusted by addition of calculated amounts of 2.0 M HCl, while ionic strength was not constant in these samples. Samples were kept at 25°C for a week. Absorbance values were determined at 9 wavelengths (550, 575, 600, 625, 650, 675, 700, 725, and 750 nm). For calculation of stability and protonation constants of Cu(DOTPI), molar absorptivities of CuCl2, and Cu(HxL) species (wherein x = 0, 1, 2 …5) were determined by recording the spectra of 1.0 × 10^−3, 2.0 × 10^−3 and 3.0 × 10^−3 M solutions of CuCl2 and Cu(DOTPI) in the pH range of 1.7–11.7. The protonation constants of the complexes Cu(DOTPI) and the stability and protonation constants of the dinuclear Cu2(DOTPI) complexes were determined by pH-potentiometric titrations, made at 1:1 and 2:1 metal to ligand concentration ratios.
The stability constant of the Cu(DOTPI(Chx)4) complex has been determined by spectrophotometry with the use of competition reactions between DOTPI(Chx)4 and EDTA for the Cu^2+ at pH = 5.0. The concentration of Cu(EDTA) was 0.2 mM, while that of the DOTPI(Chx)4 was varied between 0.1 and 1.0 mM (5 samples). The samples were kept at 25°C for 2 weeks. The absorbance values and the molar absorptivities of CuCl2, Cu(DOTPI(Chx)4), and Cu(EDTA) have been determined at 11 wavelength (300, 304, 308, 312, 316, 320, 324, 328, 332, 336, and 340 nm) values between 300 and 340 nm. The molar absorptivities of CuCl2, Cu(DOTPI(Chx)4), and Cu(EDTA) were deteremined in 0.05, 0.1, 0.2, 0.3, and 0.4 mM solutions. The absorbance and pH values were determined in the samples after the equilibrium was reached (the time needed to reach the equilibria was determined by spectrophotometry). The spectrophotometric measurements were made with the use of 1.0 cm cells with a Cary 1E spectrophotometer at 25°C. The protonation constants of Cu(DOTPI(Chx)4) complex were determined by pH-potentiometric titrations at 1:1 metal to ligand molar ratio.
For pH measurements and titrations, a Metrohm 785 DMP Titrino titration workstation and a Metrohm-6.0233.100 combined electrode were used. Equilibrium measurements were carried out at a constant ionic strength (0.15 M NaCl) in 6 mL samples at 25°C. The solutions were stirred, and constantly purged with N2. The titrations were performed in a pH range of 1.7–11.7. KH-phthalate (pH = 4.005) and borax (pH = 9.177) buffers were used to calibrate the pH meter. For calculation of [H^+] from measured pH values, the method proposed by Irving et al. was used (Irving et al., [1967]). A 0.01 M HCl solution was titrated with the standardized NaOH solution in the presence of 0.1 M NaCl. Differences between the measured (pHread) and calculated pH (–log[H^+]) values were used to obtain the equilibrium H^+ concentration from the pH values, measured in the titration experiments. For the equilibrium calculations, the stoichiometric water ionic product (pKw) is also needed to calculate [H^+] values in basic conditions. […] For the calculation of the equilibrium constants the program PSEQUAD (Zekany and Nagypal, [1985]) was used.
2. Protonation and complexation equilibria of DOTPI and
The protonation processes of the DOTPI and DOTPI(Chx)4, ligands have been studied by pH-potentiometry. The protonation constants (logKiH) of ligands are defined according to Eq. (1).
The stability and protonation constants of DOTPI and DOTPI(Chx)4 complexes with several metal ions were determined by pH-potentiometric and UV/Vis spectrophotometric, methods.
The stability and protonation constants of the metal complexes formed with the DOTPI and […]

The conditions of series [2]: 25°C, I = 0.1 M Me4NCl; ref Lázár et al., [1991]; cited from earlier work.

Turning to `O=C(O)CCP(=O)(O)CN1CCN(CP(=O)(O)CCC(=O)O)CCN(CP(=O)(O)CCC(=O)O)CCN(CP(=O)(O)CCC(=O)O)CC1` [DOTPI, 1,4,7,10-tetraazacyclododecane-1,4,7,10-tetrakis[methylene(2-carboxyethylphosphinic acid)]], in series [1], the “protonation constant Cu2LH” value is 5.04 (3), the “protonation constant Cu2LH2” value is given as 4.71 (5), the “protonation constant CuH2L” value is given as 5.07 (1) and the “protonation constant CuH3L” value is recorded as 4.49 (2). For the same compound, in series [1], the “protonation constant CuH4L” value is 4.20 (2), the “protonation constant CuH5L” value is recorded as 2.35 (3), the “protonation constant CuHL” value was 5.68 (2) and the “stability constant of dinuclear complex Cu2L” value was 4.49 (6). For the same compound, the “logKML, ZnL” value in series [2] was 18.57.
